Experiments:
[1] = tested on: CYP24A1 in SK-MEL-28 cells; experiment: CYP24A1 induction (RT-qPCR), extended dose–response in SK-MEL-28 cells; conditions: SK-MEL-28 cells, 1,25D up to 1 mM
[2] = tested on: VDRE in the mouse Spp1 gene, B16–F10 cells; experiment: ChIP-qPCR at the Spp1 VDRE; assay type: cell-based
Excerpt: To test this, we performed ChIP assays in B16–F10 cells, analyzing ligand-induced VDR and CBP (Creb binding protein) coactivator recruitment to the well-characterized consensus vitamin D receptor element (VDRE) in the mouse Spp1 gene (Figure A), which is superinduced by AC-340 (Figures C and A). CBP was chosen because it is widely expressed, and previous studies have shown that it is recruited to Cyp24a1 VDREs. […] In contrast, AC-340 recruited almost 3-fold more CBP under the same conditions (Figure C). CBP is a component of a large coactivator assembly recruited by VDR and required for chromatin remodeling due to its H3K27 acetyltransferase activity. − Since we previously observed a substantially higher level of H3K27 acetylation in AC-340-treated B16–F10 cells (Figure C,D), we intend to assess H3K27 acetylation at the Spp1 VDRE.
Cells were then fixed by adding formaldehyde directly to the culture medium to a final concentration of 1% and incubated for 15 min at RT. To quench the fixation, glycine was added to the medium at a final concentration of 125 mM. […] Quantification of immunoprecipitated materials was performed by qPCR and the enrichment of the target gene VDRE in each condition was normalized to the percentage input.

B16–F10 cells = experiment: RNaseq gene expression profiling; assay type: cell-based, mouse; conditions: 100 nM, 24 h;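 as to logFC Cck: Hybrid compounds tested at 10 µM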;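 as to logFC Cited1: Hybrid compounds tested at 10 µM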
Experimental: AC-340 superinduced CYP24A1 expression in all cell lines tested, and ZG-126 appeared to be a hyperagonist in SK-MEL-28 cells. […] AC-340 treatment produced 3 times more differentially expressed genes (DEGs) than AM-193, with ZG-126 producing an intermediate number (Figure A). […] The varying effects of each treatment on the numbers of regulated genes and the fold changes observed are reflected in plots of log-fold changes and volcano plots (Figure S3B).
A quality control was performed before sequencing in paired-end at 50 M reads by Illumina NovaSeq 6000 S4 PE100. After sequencing, the FASTQ files were sent to us and all downstream analysis were performed on Galaxy (Galaxy (usegalaxy.org)). First, trimmomatic tool was used to remove the adapters from the reads. Then, using the alignment tool, HISAT2, the reads were mapped to the mouse genome. In the next step, the counted reads were annotated and finally the list of differentially expressed genes (DEGs) for each treatment was obtained using the preinstalled R package called Limma.

[3] = molecular target: T1, zebrafish vitamin D receptor ligand binding domain (zVDR LBD, 156-453) (zebrafish, UniProt Q9PTN2 156-453); experiment: crystal structure; zVDR LBD (3-7 mg/mL) incubated with a 2-fold excess of ligand AC-340 and a 3-fold excess of the NCoA2 NR2 peptide; crystals at 293 K in Na2 tartrate 1.1 M, MgCl2 0.2 M, Hepes 0.1 M pH 7.5; one LBD complex per asymmetric unit; refined to 2.1 Å; conditions: both partners purified
T1 construct: Cloned into pET28b; the His tag was removed by thrombin, so residues of the vector may remain at the end; The crystal also holds the small molecule AC-340; also called zebrafish VDR; source: Escherichia coli BL21 DE3, purified (Ni Hitrap FF crude column, thrombin cleavage, size exclusion on HiLoad Superdex 75)
T1 sequence (looked up): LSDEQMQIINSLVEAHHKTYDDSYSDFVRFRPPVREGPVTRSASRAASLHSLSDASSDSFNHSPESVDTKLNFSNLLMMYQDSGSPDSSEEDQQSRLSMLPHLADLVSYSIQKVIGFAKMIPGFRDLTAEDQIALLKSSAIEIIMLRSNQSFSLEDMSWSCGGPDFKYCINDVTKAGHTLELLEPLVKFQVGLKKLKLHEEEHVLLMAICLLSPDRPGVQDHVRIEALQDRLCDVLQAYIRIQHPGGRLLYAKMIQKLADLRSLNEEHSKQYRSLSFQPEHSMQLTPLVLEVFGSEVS

C=C1/C(=C\C=C2/CCC[C@]3(C)[C@@H]([C@H](C)CCCC(C)(C)O)CC[C@@H]23)C[C@@H](O)C[C@@H]1O [1,25D, 1α,25-dihydroxyvitamin D]
CYP24A1 induction on extending the dose range [1]: failed to enhance the induction of CYP24A1 | H3K27 acetylation at the Spp1 VDRE [2]: ineffective | logFC 4931406C07Rik (B16–F10 cells): 0.647 | logFC Abcd2 (B16–F10 cells): 2.727 | logFC Ace (B16–F10 cells): 2.102 | logFC Adamts14 (B16–F10 cells): 1.691 | logFC Adamtsl5 (B16–F10 cells): 0.7958 | logFC Adssl1 (B16–F10 cells): 0.8651 | logFC Aqp1 (B16–F10 cells): 3.095 | logFC Ass1 (B16–F10 cells): 1.083 | logFC Atoh8 (B16–F10 cells): 1.866 | logFC C3 (B16–F10 cells): 2.444 | logFC Cebpd (B16–F10 cells): 0.9202 | logFC Cib2 (B16–F10 cells): 0.656 | logFC Crabp2 (B16–F10 cells): 1.516 | logFC Cyp24a1 (B16–F10 cells): 6.454 | logFC Dagla (B16–F10 cells): 0.6621 | logFC Ddo (B16–F10 cells): 1.132 | logFC Dhrs3 (B16–F10 cells): 1.185 | logFC Dmpk (B16–F10 cells): 1.6 | logFC Efcab6 (B16–F10 cells): 1.404 | logFC Efhd1 (B16–F10 cells): 3.1104 | logFC Elfn1 (B16–F10 cells): 4.174 | logFC Enpp1 (B16–F10 cells): 1.029 | logFC Enpp3 (B16–F10 cells): 1.066 | logFC Fam83f (B16–F10 cells): 1.009 | logFC Fam178b (B16–F10 cells): 0.6417 | logFC Gadd45a (B16–F10 cells): 0.6305 | logFC Gdpd5 (B16–F10 cells): 0.8468 | logFC Gm5424 (B16–F10 cells): 1.087 | logFC Grb14 (B16–F10 cells): 4.512 | logFC Hcn2 (B16–F10 cells): 2.951 | logFC Hes6 (B16–F10 cells): 0.8133 | logFC Hoga1 (B16–F10 cells): 0.7079 | logFC Hoxb9 (B16–F10 cells): 0.9861 | logFC Inmt (B16–F10 cells): 4.174 | logFC Itgal (B16–F10 cells): 2.511 | logFC Lgr6 (B16–F10 cells): 1.733 | logFC Lrtm2 (B16–F10 cells): 3.553 | logFC Mal (B16–F10 cells): 1.086 | logFC Matn2 (B16–F10 cells): 1.519 | logFC Mmp28 (B16–F10 cells): 2.973 | logFC Myl9 (B16–F10 cells): 1.815 | logFC Neu3 (B16–F10 cells): 0.8227 | logFC Nptx1 (B16–F10 cells): 1.67 | logFC Obscn (B16–F10 cells): 1.291 | logFC Pdlim2 (B16–F10 cells): 0.7794 | logFC Prag1 (B16–F10 cells): 0.7325 | logFC Prelp (B16–F10 cells): 4.153 | logFC Ptges (B16–F10 cells): 2.985 | logFC Rab7b (B16–F10 cells): 1.864 | logFC Rac2 (B16–F10 cells): 2.0813 | logFC Rom1 (B16–F10 cells): 0.7288 | logFC Rtn2 (B16–F10 cells): 0.9272 | logFC Scamp1 (B16–F10 cells): 0.6536 | logFC Serpinb9b (B16–F10 cells): 0.64 | logFC Sh3bgr (B16–F10 cells): 1.253 | logFC Shpk (B16–F10 cells): 0.8108 | logFC Sox8 (B16–F10 cells): 3.592 | logFC Spp1 (B16–F10 cells): 3.391 | logFC Srcin1 (B16–F10 cells): 2.803 | logFC Tgm2 (B16–F10 cells): 2.227 | logFC Tnni1 (B16–F10 cells): 6.667 | logFC Ttc39c (B16–F10 cells): 1.046 | logFC Vdr (B16–F10 cells): 3.982 | logFC Wnt10a (B16–F10 cells): 1.853

O=C(CCCCCCC(=O)Nc1ccccc1)NO [SAHA, suberoylanilide hydroxamic acid]
logFC 1500009L16Rik (B16–F10 cells): 0.7062 | logFC Abca13 (B16–F10 cells): 0.7574 | logFC Adam19 (B16–F10 cells): 0.5841 | logFC Adamts7 (B16–F10 cells): 1.124 | logFC Adamts14 (B16–F10 cells): 1.217 | logFC Ank3 (B16–F10 cells): 0.7456 | logFC Apbb1 (B16–F10 cells): 0.8022 | logFC Atcay (B16–F10 cells): 1.535 | logFC Atp1b2 (B16–F10 cells): 0.7178 | logFC Atp2b4 (B16–F10 cells): 0.9179 | logFC Bcan (B16–F10 cells): 0.5824 | logFC Btn1a1 (B16–F10 cells): 2.439 | logFC C1qtnf1 (B16–F10 cells): 1.607 | logFC C1s1 (B16–F10 cells): 0.9877 | logFC Card10 (B16–F10 cells): 0.6233 | logFC Cck (B16–F10 cells): -0.6184 | logFC Ccl2 (B16–F10 cells): 0.7906 | logFC Chn1 (B16–F10 cells): 0.6625 | logFC Cited1 (B16–F10 cells): -0.5815 | logFC Clcnka (B16–F10 cells): 1.628 | logFC Clu (B16–F10 cells): 0.9236 | logFC Col1a1 (B16–F10 cells): 1.702 | logFC Cpm (B16–F10 cells): 0.8993 | logFC Crip1 (B16–F10 cells): 0.7228 | logFC Crmp1 (B16–F10 cells): 0.7266 | logFC Csdc2 (B16–F10 cells): 1.013 | logFC Dock10 (B16–F10 cells): 0.6896 | logFC Egfl7 (B16–F10 cells): 0.5994 | logFC Elovl4 (B16–F10 cells): 0.6542 | logFC Enpp1 (B16–F10 cells): 0.7446 | logFC Enpp3 (B16–F10 cells): 0.9035 | logFC Entpd2 (B16–F10 cells): 0.9577 | logFC Fam131b (B16–F10 cells): 1.153 | logFC Fbxo41 (B16–F10 cells): 0.8175 | logFC Fstl1 (B16–F10 cells): 1.348 | logFC Gli1 (B16–F10 cells): 1.843 | logFC Glipr2 (B16–F10 cells): 0.8149 | logFC Gpr162 (B16–F10 cells): 0.6749 | logFC Gsdmc (B16–F10 cells): 0.6713 | logFC Gstt1 (B16–F10 cells): 1.731 | logFC Hoxb9 (B16–F10 cells): 0.9565 | logFC Itga8 (B16–F10 cells): 0.6392 | logFC Jam2 (B16–F10 cells): 0.5927 | logFC Kcnh2 (B16–F10 cells): 1.1509 | logFC Kcnt1 (B16–F10 cells): 2.101 | logFC Kdelr3 (B16–F10 cells): 0.5979 | logFC Klrg2 (B16–F10 cells): 0.6093 | logFC Loxl4 (B16–F10 cells): 0.8565 | logFC Lrp11 (B16–F10 cells): 0.65 | logFC Lrrc75b (B16–F10 cells): 1.006 | logFC Ltbp4 (B16–F10 cells): 1.299 | logFC Map2 (B16–F10 cells): 0.5974 | logFC Mgat3 (B16–F10 cells): 0.5859 | logFC Mmp11 (B16–F10 cells): 0.7246 | logFC Mmp17 (B16–F10 cells): 1.252 | logFC Mogat2 (B16–F10 cells): 0.5856 | logFC Myl9 (B16–F10 cells): 0.6886 | logFC Nacad (B16–F10 cells): 0.9826 | logFC Ndrg4 (B16–F10 cells): 0.8254 | logFC Neurl1a (B16–F10 cells): 0.5887 | logFC Notch1 (B16–F10 cells): 0.8121 | logFC Palld (B16–F10 cells): 0.5874 | logFC Pcdh17 (B16–F10 cells): 0.6033 | logFC Pdgfra (B16–F10 cells): 1.16 | logFC Plat (B16–F10 cells): 0.5899 | logFC Plppr2 (B16–F10 cells): 0.641 | logFC Plppr3 (B16–F10 cells): 0.7184 | logFC Pmm1 (B16–F10 cells): 0.5873 | logFC Ppm1j (B16–F10 cells): 0.9349 | logFC Prelp (B16–F10 cells): 0.6949 | logFC Prnd (B16–F10 cells): 0.9638 | logFC Prph (B16–F10 cells): 1.113 | logFC Ptgs1 (B16–F10 cells): 0.7769 | logFC Rab7b (B16–F10 cells): 1.164 | logFC Rasa4 (B16–F10 cells): 1.171 | logFC Rcn3 (B16–F10 cells): 0.5908 | logFC Reep6 (B16–F10 cells): 0.6217 | logFC Rflnb (B16–F10 cells): 0.6241 | logFC Rhpn2 (B16–F10 cells): 0.7266 | logFC Rtn2 (B16–F10 cells): 0.735 | logFC Rtn4rl2 (B16–F10 cells): 1.53 | logFC Rundc3a (B16–F10 cells): 0.8211 | logFC S100a6 (B16–F10 cells): 0.8372 | logFC Scube3 (B16–F10 cells): 0.7375 | logFC Septin4 (B16–F10 cells): 0.8607 | logFC Septin5 (B16–F10 cells): 1.1153 | logFC Spn (B16–F10 cells): 1.292 | logFC Sptbn2 (B16–F10 cells): -0.6313 | logFC Stum (B16–F10 cells): 0.9146 | logFC Syt3 (B16–F10 cells): 1.3692 | logFC Syt7 (B16–F10 cells): 0.603 | logFC Tagln2 (B16–F10 cells): 0.7428 | logFC Tgm2 (B16–F10 cells): 1.1319 | logFC Thbs3 (B16–F10 cells): 0.7215 | logFC Tlr1 (B16–F10 cells): 0.6918 | logFC Trim47 (B16–F10 cells): 0.6166 | logFC Trnp1 (B16–F10 cells): 0.6142 | logFC Uchl1 (B16–F10 cells): 0.7608 | logFC Vash1 (B16–F10 cells): 0.6486 | logFC Vdr (B16–F10 cells): 1.045 | logFC Wfdc1 (B16–F10 cells): 0.7568 | logFC Wnt6 (B16–F10 cells): 1.4553

KHKILHRLLQDSS (also called NCoA2 peptide) [coactivator NCoA2 NR2 peptide (human nuclear receptor coactivator 2, second NR box)]
binding result [3]: binds

From publication PMC12517324, “Hyperagonism of a Vitamin D Receptor Agonist/Histone Deacetylase Inhibitor Hybrid Molecule” (Journal of Medicinal Chemistry, 2025)
